Experimental data from patent US12653814B2, “Benzimidazolone-based cinnamamide derivative as TRPV1 antagonist and pharmaceutical composition for treatment or prevention of pain containing same as active ingredient” (JMACKEM CO., LTD, priority 2020, dated 2026).

What was measured:
human TRPV1 (hTRPV1) [1] = target: T1, human TRPV1 (hTRPV1) (Homo sapiens, UniProt Q8NER1); assay: Ca2+ influx assay, antagonism against capsaicin in hTRPV1-HEK recombinant cells; format: cell-based; conditions: capsaicin 10 nM as activator, Fluo4-NW fluorescence, read-out: hTRPV1 IC50 [cap]
T1 construct: host or cells: HEK (PrecisION hTRPV1-HEK recombinant cell line)

human TRPV1 (hTRPV1) [2] = target: T1, human TRPV1 (hTRPV1); assay: Evaluation of human pH inhibitory activity in hTRPV1-HEK recombinant cells; format: cell-based; conditions: inhibition of activation at final pH 6.0, test substance 3 μM
Method: Evaluation of Human pH Inhibitory Activity
PrecisION™ hTRPV1-HEK recombinant cells (CYL3063) were purchased from Millipore and used. After culturing the above cells under the conditions of 37° C. and 5% CO2, the cells were inoculated in a 96-well plate at the density of 5×10^4 cells/well, followed by culture for 16 hours. Then, the medium was removed and 100 uL of a staining solution was put into each well, followed by culture for 30 minutes under the conditions of 37° C. and 5% CO2. After 30 minutes, all of the existing staining solution was removed and replaced with 100 uL of HBSS. Thereafter, the cells were acclimatized to room temperature for 15 minutes, and the test substances (example compounds and comparative example compounds of the present invention) were added to each well, followed by culture at room temperature for 15 minutes. Then, the final pH was adjusted to 6.0 using MES, and fluorescence was measured (ex485/em535). In the pH assay, the efficacy of the drug was evaluated using BCTC as a TRPV1 antagonist.

[3] = Evaluation of bioavailability (BA), rat PK after intravenous and oral administration; format: in vivo, SD rats; conditions: male, SD, plasma, 10 mg/kg, read-out: Bioavailability F (%)
Method: SD rats (Coatec, Hana Trading Co., Ltd., 7-8 weeks old, male, n=4, 250-300 g) were used for the experiment. The rats were bred in a small animal breeding room (experimental animal center) set at a temperature of 22±2° C., a relative humidity of 50±5%, an illumination time of 12 hours (08:00˜20:00), and an illumination intensity of 150 to 300 lux. Feed was fed freely during the entire test period, and RO water was provided freely. Before oral administration of the test substances (example compounds and comparative example compounds of the present invention), the rats were fasted for 16 hours.
The dosage of the example compounds and comparative example compounds of the present invention was 5 mg/kg when administered intravenously and 10 mg/kg when administered orally. For intravenous administration, a clear solution in which 10% DMSO, 10% Cremophor EL, and 80% PEG400 were dissolved was administered. For oral administration, a solution or suspension in which 10% DMSO and 10% Cremophor EL were dissolved in 80% DDW was administered.
After the intravenous or oral administration, blood was collected at 5 minutes, 15 minutes, 30 minutes, 1 hour, 2 hours, 4 hours, 6 hours and 8 hours, and the concentrations of the test substances (example compounds and comparative example compounds of the present invention) in plasma were measured by LC-MS/MS.
After adding 80 μl of acetonitrile (including internal standard) to 20 μl of plasma, centrifugation was performed for 5 minutes at 15,000 rpm at 4° C. with vortexing. The supernatant obtained after the centrifugation was analyzed by LC-MS/MS. For HPLC, Nexera XR system (Shimadzu, Japan) was used, and for mass spectrometer, TSQ vantage triple quadruple (Thermo, USA) was used.
The PK parameters were calculated with a non-compartmental analysis model using Phoenix WinNonlin 6.4 version (Pharsight, USA) program.
AUC was calculated using the linear trapezoidal rule in the rising plasma-level phase and the logarithmic trapezoidal rule in the declining phase.

[4] = even in the absence of partial agonism; cited from earlier work
[5] = during clinical trials; cited from earlier work

T1 sequence (Q8NER1 whole entry): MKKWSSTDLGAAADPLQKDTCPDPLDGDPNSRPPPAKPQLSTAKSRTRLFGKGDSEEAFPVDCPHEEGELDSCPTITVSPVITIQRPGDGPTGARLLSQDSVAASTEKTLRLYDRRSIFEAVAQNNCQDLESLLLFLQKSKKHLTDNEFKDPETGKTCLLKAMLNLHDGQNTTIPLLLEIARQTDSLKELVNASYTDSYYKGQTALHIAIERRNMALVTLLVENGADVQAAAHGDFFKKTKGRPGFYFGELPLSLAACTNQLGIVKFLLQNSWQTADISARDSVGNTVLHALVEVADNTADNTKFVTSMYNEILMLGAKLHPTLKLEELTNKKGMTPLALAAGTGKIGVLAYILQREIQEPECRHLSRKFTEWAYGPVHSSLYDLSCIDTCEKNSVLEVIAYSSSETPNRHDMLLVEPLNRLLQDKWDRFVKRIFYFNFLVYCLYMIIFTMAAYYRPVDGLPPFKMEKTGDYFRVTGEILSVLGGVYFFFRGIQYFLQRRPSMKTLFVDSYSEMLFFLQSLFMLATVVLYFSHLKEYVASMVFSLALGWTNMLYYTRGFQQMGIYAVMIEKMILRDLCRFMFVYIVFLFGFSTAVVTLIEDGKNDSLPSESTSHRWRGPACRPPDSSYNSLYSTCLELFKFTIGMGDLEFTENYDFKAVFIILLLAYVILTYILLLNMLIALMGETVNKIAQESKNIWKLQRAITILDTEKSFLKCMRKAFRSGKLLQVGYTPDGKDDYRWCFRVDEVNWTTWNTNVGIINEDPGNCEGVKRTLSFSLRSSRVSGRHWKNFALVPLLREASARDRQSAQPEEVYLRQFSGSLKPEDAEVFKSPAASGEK

SMILES | IC50 (human TRPV1 (hTRPV1) [1]) [µM] | hTRPV1 pH (%, 3 μM) (human TRPV1 (hTRPV1) [2]) [%] | bioavailability [3] [%] | effect on body temperature [4] | subject's body temperature rose to [5] [°C]
CC(C)COc1nc(C(F)(F)F)ccc1/C=C/C(=O)Nc1cccc2[nH]c(=O)[nH]c12 [Example 10, (E)-3-(2-isobutoxy-6-(trifluoromethyl)pyridin-3-yl)-N-(2-oxo-2,3-dihydro-1H-benzo[d]imidazol-4-yl)acrylamide] | 0.013 | 53.26 | 25.9 | – | –
O=C(/C=C/c1ccc(C(F)(F)F)nc1N1CCCCC1)Nc1cccc2[nH]c(=O)[nH]c12 [Example 4, (E)-N-(2-oxo-2,3-dihydro-1H-benzo[d]imidazol-4-yl)-3-(2-(piperidin-1-yl)-6-(trifluoromethyl)pyridin-3-yl)acrylamide] | 0.0113 | 49.86 | 12.5 | – | –
FC(F)(F)c1ccc(-c2cc(Nc3ccc4ncsc4c3)ncn2)c(NCC2CCCCC2)c1 [AMG7905] | – | – | – | cause hypothermia | –
O=C(NCc1ccc(C(F)(F)F)nc1N1CCCC1)Nc1cccc2[nH]c(=O)[nH]c12 [Comparative Example 1, 1-(2-oxo-1,3-dihydrobenzimidazol-4-yl)-3-[[2-pyrrolidin-1-yl-6-(trifluoromethyl)-3-pyridyl]methyl]urea, reference compound] | 0.0185 | – | 2.3 | – | –
CC(=O)Nc1nc2c(Oc3cc(-c4ccc(C(F)(F)F)cc4)ncn3)cccc2s1 [AMG 517] | – | – | – | – | 40.2
CC(C)Oc1nc(C(F)(F)F)ccc1CNC(=O)Nc1cccc2[nH]c(=O)[nH]c12 [Comparative Example 2, 1-[[2-isopropoxy-6-(trifluoromethyl)-3-pyridyl]methyl]-3-(2-oxo-1,3-dihydrobenzimidazol-4-yl)urea, reference compound] | 0.0234 | – | 1 | – | –
O=C(/C=C/c1ccc(C(F)(F)F)nc1N1CCCC1)Nc1cccc2[nH]c(=O)[nH]c12 [Example 3, (E)-N-(2-oxo-2,3-dihydro-1H-benzo[d]imidazol-4-yl)-3-(2-(pyrrolidin-1-yl)-6-(trifluoromethyl)pyridin-3-yl)acrylamide] | 0.0157 | 52.56 | 13.2 | – | –
O=C(NCc1ccc(C(F)(F)F)nc1N1CCCCC1)Nc1cccc2[nH]c(=O)[nH]c12 [Comparative Example 3, 1-(2-oxo-1,3-dihydrobenzimidazol-4-yl)-3-[[2-(1-piperidyl)-6-(trifluoromethyl)-3-pyridyl]methyl]urea, reference compound] | 0.0135 | – | 3 | – | –
CCN(CC)c1nc(C(F)(F)F)ccc1/C=C/C(=O)Nc1cccc2[nH]c(=O)[nH]c12 [Example 6, (E)-3-(2-(diethylamino)-6-(trifluoromethyl)pyridin-3-yl)-N-(2-oxo-2,3-dihydro-1H-benzo[d]imidazol-4-yl)acrylamide] | 0.0107 | 76.92 | – | – | –
CC(C)COc1nc(C(F)(F)F)ccc1CCC(=O)Nc1cccc2[nH]c(=O)[nH]c12 [Example 59, 3-(2-isobutoxy-6-(trifluoromethyl)pyridin-3-yl)-N-(2-oxo-2,3-dihydro-1H-benzo[d]imidazol-4-yl)propaneamide] | 0.0407 | 59.32 | – | – | –
O=C(/C=C/c1ccc(C(F)(F)F)cc1N1CCCCC1)Nc1cccc2c1C[C@H](O)C2 [AMG8562] | – | – | – | cause hypothermia | –
O=C(/C=C/c1ccc(C(F)(F)F)nc1-c1ccc(F)c(Cl)c1)Nc1cccc2[nH]c(=O)[nH]c12 [Example 33, (E)-3-(2-(3-chloro-4-fluorophenyl)-6-(trifluoromethyl)pyridin-3-yl)-N-(2-oxo-2,3-dihydro-1H-benzo[d]imidazol-4-yl)acrylamide] | 0.0274 | 69.89 | – | – | –
O=C(/C=C/c1ccc(C(F)(F)F)nc1OCC1CC1)Nc1cccc2[nH]c(=O)[nH]c12 [Example 13, (E)-3-(2-(cyclopropylmethoxy)-6-(trifluoromethyl)pyridin-3-yl)-N-(2-oxo-2,3-dihydro-1H-benzo[d]imidazol-4-yl)acrylamide] | 0.0137 | 30.67 | 35.6 | – | –
CC(C)c1cccc(-c2nc(C(F)(F)F)ccc2/C=C/C(=O)Nc2cccc3[nH]c(=O)[nH]c23)c1 [Example 32, (E)-3-(2-(3-isopropylphenyl)-6-(trifluoromethyl)pyridin-3-yl)-N-(2-oxo-2,3-dihydro-1H-benzo[d]imidazol-4-yl)acrylamide] | 0.0237 | 67.88 | – | – | –
